# Experimental data reported in US20240344108A1, “GALACTOSE RAPID QUANTITATIVE DETECTION SYSTEM AND USE THEREOF” (Avalon HepaPOC Limited, priority 2018, published 2024).
# Like-named read-outs stand apart in the source and are kept apart here.
# Assays:
# galactose dehydrogenase [1] = molecular target: T1, galactose dehydrogenase (Pseudomonas fluorescens, UniProt P11886); assay: Stabilizer analysis: linearity test of the galactose test strip system with different stabilizers; conditions: 0.05%, 2.5% and 5.5%
# T1 construct: purchased
# T1 sequence (P11886 1-304): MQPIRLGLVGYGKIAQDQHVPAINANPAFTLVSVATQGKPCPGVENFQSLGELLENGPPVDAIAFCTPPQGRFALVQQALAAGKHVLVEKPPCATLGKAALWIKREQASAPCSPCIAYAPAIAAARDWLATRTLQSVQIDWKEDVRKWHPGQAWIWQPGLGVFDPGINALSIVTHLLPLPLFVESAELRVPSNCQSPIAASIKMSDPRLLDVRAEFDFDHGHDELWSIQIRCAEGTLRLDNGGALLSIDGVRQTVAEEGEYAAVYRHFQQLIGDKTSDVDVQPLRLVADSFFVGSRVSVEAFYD
# Experimental: Galactochek Blood Galactose Meters, the galactose rapid detection system (galactose dehydrogenase concentration: 13.39%) with different types of stabilizers and concentrations, and YSI 2900 Automatic analyzer.
# All chemicals were purchased from Sigma-Aldrich (St. Louis, MO). A stock solution of galactose at 20 mg/mL was prepared with reverse osmosis water. The standard solutions are used to prepare different galactose concentration blood sample. The final concentration of galactose in blood were 200, 450, 800, 1150 and 1500 μg/mL.
# Obtain the R^2 value of the linearity test result of different strip test groups to evaluate that which type of stabilizer and concentration were suitable to be used in the system. In addition, % CV≤20% at galactose concentration range of 200-250 μg/mL, and % CV≤15% at galactose concentration range of 251-1500 μg/mL.
# galactose dehydrogenase [2] = molecular target: T1, galactose dehydrogenase; assay: Electrochemical response after galactose dehydrogenase immobilization and drying onto the biosensor with protectant; conditions: protectant used as stabilizer during immobilization and drying
# Text: The electrochemistry-based biosensor is designed as a test strip of electrode containing a reaction zone where galactose within the blood sample is to react with galactose metabolic enzymes, leading to the generation of an electrochemical signal. Two galactose-catalyzing enzymes, galactose dehydrogenase (GD) and galactose oxidase (GO) capable of generating electrochemical information, were selected for embedded immobilization and drying onto the electrode to enable electrochemical signal production. […] However, GO catalyzes the oxidation of primary alcohols and sugars (including d-galactose and lactose) in the presence of oxygen, thus impacting the accuracy of quantitation. Aggravatingly, excessive oxygen can compete with the electron mediator of the oxidase-based amperometric strip for electrons, thus resulting in underestimation of galactose measurement. This poses a challenge in point-of-care (POC) scenarios where fresh whole blood sample, rich in oxygen due to prolonged exposure to the atmosphere, or from critically ill patients receiving oxygen support, are utilized.
# Galactose dehydrogenase, on the other hand, catalyzes d-galactose with high specificity without the involvement of oxygen. The enzyme was therefore used to be immobilized and dried onto the biosensor. […]
# [3] = Intravenous injection galactose GSP test (blood galactose after intravenous galactose); assay type: in vivo; conditions: human, plasma, 0.5 g/kg, average ± standard error
# Experimental: The conventional detection method is used for intravenous injection of 0.5 g/kg galactose after fasting for 8 hours, and measured the galactose concentration in plasma after 60 minutes (Tang H. S. et al. (1992) Digestion, 52:222-231; Ranek L. et al. (1983) Clin. Physiol. 3:173-178). The measurement method comprises: drawing a measurement curve according to a relationship between different concentrations of standard galactose solutions and light absorption values thereof; adding HClO4 in the extracted blood and shaking for mixing, then taking supernatant by centrifugation; adding KOH into the supernatant and shaking for mixing, then taking supernatant by centrifugation again; and then adding galactose dehydrogenase into the supernatant and placing in a dark room for 60 minutes to avoid color reaction inaccuracy for preparing of a specimen and measuring the light absorption value thereof; and finally finding the concentration value by the measurement curve. However, the detection process is complicated and time-consuming, and requires using a variety of medicaments. Therefore, it takes lengthy procedure to learn the detecting result.
# The oral administration galactose OGSP values of the subjects in the liver function normal group are in the range 318±27 μg/ml (average±standard error) with the minimum value 18 μg/ml and maximum value 887 μg/ml. […] The oral administration galactose OGSP values of the subjects in the liver function severely impaired group are in the range 777±48 μg/ml with the minimum value 293 μg/ml and maximum value 1499 μg/ml. […] Particularly, the oral administration galactose OGSP value is higher than the intravenous injection galactose GSP value. […] The oral administration galactose OGSP values of the subjects in the liver function severely impaired group are mainly in the range of 681-873 μg/ml (average+2*standard error). […] Therefore, further liver function tests should be taken in the subjects whose OGSP value is greater than 370 μg/ml. In additional to intravencous injection, similar results were obtained by other injection or other administration ways.
# [4] = average ± standard error, literature values, cited from earlier work
# clinical = conditions: human, in vivo
# Text: The user needs to drink the oral galactose composition first, wherein the content of the galactose is 1%-80%, preferably 4%-40%, by weight of the total galactose composition, wherein the buffer solution can be not added or can be added to the total weight of 0.001%-5%, and the antioxidant can be not added or can be added to the total weight of 0.001%-5%. Appropriate formula can be prepared by selecting the buffer and the antioxidant, and adding the content of the following ingredients: antioxidant of 0.01M-1M selected from a group including vitamin C, sodium bisulfite, vitamin A, vitamin E, flavonoids, polyphenols, Ethylenediaminetetraacetic acid (EDTA), Diethylenetriaminepentaacetic acid (DTPA), and NTA-Nitrilotriacetate acid (NTA); and/or buffer solution of 0.01M-1M selected from a group including acetic buffer, citrate buffer, phosphate buffer, acetate buffer, carbonate buffer, ascorbic acid buffer, and triethanolamine buffer with adjustment of the pH values ranged 4.0-9.0. A stable formula can be obtained by adding 0.01% citrate buffer and 0.5% sodium bisulfite with a pH value of 4.5. […]
# Before sampling biological sample, wipe the fingertips with alcohol cotton. […] In addition, the potential of this readout can be transmitted to the others including medical practitioners through Bluetooth or similar connection through a mobile phone or computer. […]
smiles,measurement,setting,value
"NCC(=O)O [Glycine, glycine]",suitability as stabilizer in the system,galactose dehydrogenase [1],not suitable
"OC[C@@H](O)[C@@H](O)[C@H](O)[C@H](O)CO [Mannitol, mannitol]",suitability as stabilizer in the system,galactose dehydrogenase [1],not suitable
"OC[C@H]1O[C@@](CO)(O[C@H]2O[C@H](CO)[C@@H](O)[C@H](O)[C@H]2O)[C@@H](O)[C@@H]1O [Sucrose, sucrose]",suitability as stabilizer in the system,galactose dehydrogenase [1],not suitable
"OC[C@H]1O[C@H](O[C@H]2O[C@H](CO)[C@@H](O)[C@H](O)[C@H]2O)[C@H](O)[C@@H](O)[C@@H]1O [Trehalose, trehalose]",galactose-dependent electrochemical signal of GD-based biosensor,galactose dehydrogenase [2],successfully preserved the activity of enzyme
O=C[C@H](O)[C@@H](O)[C@@H](O)[C@H](O)CO [galactose],concentration at 60 min,[3]; Mild or moderate impairment of liver function (N = 31),359 ± 10 µg/mL
same,concentration at 60 min,[3]; Normal liver function (N = 56),174 ± 8 µg/mL
same,concentration at 60 min,[3]; Severe impairment of liver function (N = 40),667 ± 29 µg/mL
same,"IV GSP, Digestion 1992; 52: 222-231",[4]; Mild or moderate impairment of liver function,423 ± 26.0 µg/mL
same,"IV GSP, Digestion 1992; 52: 222-231",[4]; Normal liver function,247 ± 16.5 µg/mL
same,"IV GSP, Digestion 1992; 52: 222-231",[4]; Severe impairment of liver function,630 ± 41.0 µg/mL
same,concentration at 60 min,clinical; OGSP maximum value,887 µg/mL
same,concentration at 60 min,clinical; OGSP values mainly in the range,510 to 670 µg/mL
